From article PMC8691714 (Cancer Research Communications, 2021)

What was measured:
[1] = set-up: method as in earlier work; settings: unbound drug in the plasma; PBPK model parameter; ref [17, 18] and Drugbank; cited from earlier work
[2] = In vivo pharmacokinetic study in mice, intravenous ibrutinib (plasma); settings: for AUC(0-t) / Cmax: female, FVB, mouse, plasma, iv, 1 mg/kg, ibrutinib 1 mg/kg IV, mean (SD); for AUC(0-t): Ibrutinib AUC(0-last); for Cmax: Ibrutinib Cmax
Description: (§1) Experiments were performed with male and female mice from inbred wild-type strains (FVB, C57BL/6, DBA) or with age- and sex-matched genetically engineered mice with a deficiency of the Cyp3a locus [(8 genes; FVB.129P2-Cyp3a13^tm1Ahs Del (5Cyp3a57-Cyp3a59)1Ahs); ref. [16]; CYP3A^−/−], a deficiency of the intestinal transporter OATP2B1 (ref. [17]; OATP2B1 ^−/−), or the hepatic transporter OATP1B2 (ref. [18]; OATP1B2 ^−/−). […] The studies were approved by the University Laboratory Animal Resources Animal Care and Use Committee at The Ohio State University (Columbus, OH). […] For in vivo studies, drugs were prepared in standard vehicles ([19, 20]). Details regarding the preparation of drugs are provided in the Supplementary Methods.
(§2) Pharmacokinetic studies were performed as described previously ([21]). Further details are provided in the Supplementary Methods.
(§3) The lower limit of quantification was 5 ng/mL, using 5-μL sample volumes. Details regarding the analytic method are provided in the Supplementary Methods.
(§4) Ketoconazole was prepared for oral administration as a 10-mg/mL suspension in PEG400, and cobicistat as a 6-mg/mL suspension in corn oil.
(§5) Pharmacokinetic studies were performed as previously described.

[3] = set-up: method as in earlier work; settings: acid dissociation constant; PBPK model parameter; ref [17, 18] and Drugbank; cited from earlier work
[4] = In vivo pharmacokinetic study in mice, oral ibrutinib (plasma, LC-MS/MS); settings: for AUC(0-t) / Cmax / bioavailability: plasma, po; for AUC(0-t): Ibrutinib AUC(0-last); for Cmax: Ibrutinib Cmax; for increase in ibrutinib AUC: male FVB wild-type mice; for systemic levels of ibrutinib: ibrutinib 10 mg/kg orally
Description: as §1, §2, §3, §4, §5
The analytical equipment consisted of a Vanquish UHPLC system, a TSQ Quantum Ultra triple quadrupole mass spectrometer from Thermo Fisher Scientific, and Thermo Trace Finder General Quan system software (version 3.3). An Accucore Vanquish C18 column (100 × 2.1 mm, dp = 1.5 μm; Thermo Fisher Scientific) was protected by a corresponding XBridgeBEH C18, 5-μm guard column. The injection volume of sample was 5.0 μL. The temperature of the autosampler rack was 4 °C, and the temperature of the column was 40 °C. Mobile phase A consisted of water with 0.1% (v/v) formic acid and mobile phase B consisted of acetonitrile: methanol (1:3) with 0.1% (v/v) formic acid. The total run time was 5 min. The mobile phase was delivered at a flow rate of 0.4 mL/min, and the optimized gradient contained time-varying amounts of mobile phase B, as follows: 0-0.5 min, 10% B; 0.5-1.5 min, 95% B; 1.5-2.9 min, 95% B; 2.9-3.0 min, 10% B; and 3.0-5.0 min, 10% B. The mass spectrometric assay settings included a positive voltage applied to the ESI capillary of 3500 V, a capillary temperature of 342 °C, and a vaporizer temperature of 358 °C. Argon was used a collision gas at a pressure of 1.5 mTorr. […] For sample extraction by protein precipitation, 5 µL of plasma, 5 µL of microsomal suspension, or 10 µL of homogenized tissue were added to a tube containing 60 µL of internal standard solution and 20 µL of methanol. Samples were then vortex-mixed, centrifuged at 13,000 rpm for 9.5 min, and supernatants collected and stored frozen until analysis. […] The lower limit of quantification was 5 ng/mL, using 5-µL sample volumes.

[5] = population PK model estimate, mice
[6] = female CYP3A(-/-) mice, co-treatment cobicistat
[7] = female CYP3A(-/-) mice, co-treatment corn oil
[8] = female wild-type FVB mice, co-treatment cobicistat
[9] = female wild-type FVB mice, co-treatment corn oil
[10] = female, C57BL/6, mouse, 10 mg/kg, female OATP2B1(-/-) mice, ibrutinib 10 mg/kg PO, no co-treatment, mean (SD)
[11] = female, C57BL/6, mouse, 10 mg/kg, female wild-type C57BL/6 mice, ibrutinib 10 mg/kg PO, no co-treatment, mean (SD)
[12] = female, DBA, mouse, 10 mg/kg, female OATP1B2(-/-) mice, ibrutinib 10 mg/kg PO, no co-treatment, mean (SD)
[13] = female, DBA, mouse, 10 mg/kg, female wild-type DBA mice, ibrutinib 10 mg/kg PO, no co-treatment, mean (SD)
[14] = female, FVB, mouse, 4 mg/kg, female wild-type FVB mice, ibrutinib 4 mg/kg oral, cotreatment cobicistat 30 mg/kg, mean (SE)
[15] = female, FVB, mouse, 10 mg/kg, female CYP3A-/- mice, ibrutinib 10 mg/kg oral, cotreatment cobicistat 30 mg/kg, mean (SE)
[16] = female, FVB, mouse, 10 mg/kg, female CYP3A-/- mice, ibrutinib 10 mg/kg oral, cotreatment corn oil, mean (SE)
[17] = female, FVB, mouse, 10 mg/kg, female CYP3A-/- mice, ibrutinib 10 mg/kg oral, no cotreatment, mean (SE)
[18] = female, FVB, mouse, 10 mg/kg, female wild-type FVB mice, ibrutinib 10 mg/kg oral single dose, cotreatment cobicistat 30 mg/kg, mean (SE)
[19] = female, FVB, mouse, 10 mg/kg, female wild-type FVB mice, ibrutinib 10 mg/kg oral single dose, cotreatment corn oil, mean (SE)
[20] = female, FVB, mouse, 10 mg/kg, female wild-type FVB mice, ibrutinib 10 mg/kg oral, cotreatment PEG400, mean (SE)
[21] = female, FVB, mouse, 10 mg/kg, female wild-type FVB mice, ibrutinib 10 mg/kg oral, cotreatment cobicistat 30 mg/kg, steady-state, mean (SE)
[22] = female, FVB, mouse, 10 mg/kg, female wild-type FVB mice, ibrutinib 10 mg/kg oral, cotreatment corn oil, steady-state, mean (SE)
[23] = female, FVB, mouse, 10 mg/kg, female wild-type FVB mice, ibrutinib 10 mg/kg oral, cotreatment ketoconazole 50 mg/kg, mean (SE)
[24] = female, FVB, mouse, 10 mg/kg, female wild-type FVB mice, ibrutinib 10 mg/kg oral, no cotreatment, mean (SE)
[25] = female, FVB, mouse, 30 mg/kg, female wild-type FVB mice, ibrutinib 30 mg/kg oral, no cotreatment, mean (SE)
[26] = male, C57BL/6, mouse, 10 mg/kg, male OATP2B1(-/-) mice, ibrutinib 10 mg/kg PO, no co-treatment, mean (SD)
[27] = male, C57BL/6, mouse, 10 mg/kg, male wild-type C57BL/6 mice, ibrutinib 10 mg/kg PO, no co-treatment, mean (SD)
[28] = male, FVB, mouse, 10 mg/kg, male wild-type FVB mice, ibrutinib 10 mg/kg PO, co-treatment No Vehicle (cobicistat experiment), mean (SD)
[29] = male, FVB, mouse, 10 mg/kg, male wild-type FVB mice, ibrutinib 10 mg/kg PO, co-treatment None (ketoconazole experiment), mean (SD)
[30] = male, FVB, mouse, 10 mg/kg, male wild-type FVB mice, ibrutinib 10 mg/kg PO, co-treatment PEG400, mean (SD)
[31] = male, FVB, mouse, 10 mg/kg, male wild-type FVB mice, ibrutinib 10 mg/kg PO, co-treatment cobicistat, mean (SD)
[32] = male, FVB, mouse, 10 mg/kg, male wild-type FVB mice, ibrutinib 10 mg/kg PO, co-treatment corn oil, mean (SD)
[33] = male, FVB, mouse, 10 mg/kg, male wild-type FVB mice, ibrutinib 10 mg/kg PO, co-treatment ketoconazole, mean (SD)

AUC(0-t) [2, 6]: 895 ng·h/mL
AUC(0-t) [2, 7]: 1170 ng·h/mL
AUC(0-t) [2, 8]: 1010 ng·h/mL
AUC(0-t) [2, 9]: 521 ng·h/mL
Cmax [2, 6]: 1440 ng/mL
Cmax [2, 7]: 1860 ng/mL
Cmax [2, 8]: 1540 ng/mL
Cmax [2, 9]: 1410 ng/mL
increase in ibrutinib exposure ([2]; intravenous ibrutinib, CYP3A deficiency vs wild-type): 2 fold
effect of cobicistat on exposure to ibrutinib ([2]; intravenous ibrutinib, CYP3A-/- mice): did not further increase exposure
increase in ibrutinib exposure ([2]; intravenous ibrutinib, wild-type mice, oral cobicistat pretreatment vs vehicle): 2 fold
ibrutinib AUC increase ([4]; CYP3A-/- mice compared with wild-type mice, oral ibrutinib): about 8 fold
pharmacokinetic profile of ibrutinib with vs without cobicistat ([4]; CYP3A-/- mice, oral ibrutinib, P > 0.05): similar
increase in exposure to ibrutinib ([4]; female wild-type mice, oral ibrutinib 10 mg/kg 30 minutes after oral ketoconazole 50 mg/kg vs vehicle): about 11 fold
AUC(0-t) [4, 10]: 1750 ng·h/mL
AUC(0-t) [4, 11]: 1450 ng·h/mL
Cmax [4, 10]: 1250 ng/mL
Cmax [4, 11]: 1420 ng/mL
AUC(0-t) [4, 12]: 2100 ng·h/mL
AUC(0-t) [4, 13]: 2720 ng·h/mL
Cmax [4, 12]: 2170 ng/mL
Cmax [4, 13]: 1960 ng/mL
AUC(0-t) [4, 14]: 1200 ng·h/mL
Cmax [4, 14]: 589 ng/mL
bioavailability ([4]; female, FVB, mouse, 4 mg/kg, female wild-type FVB mice, ibrutinib 4 mg/kg oral, cotreatment cobicistat 30 mg/kg): 58%
AUC(0-t) [4, 15]: 1660 ng·h/mL
AUC(0-t) [4, 16]: 1410 ng·h/mL
AUC(0-t) [4, 17]: 2350 ng·h/mL
AUC(0-t) [4, 18]: 2600 ng·h/mL
AUC(0-t) [4, 19]: 284 ng·h/mL
AUC(0-t) [4, 20]: 768 ng·h/mL
AUC(0-t) [4, 21]: 2250 ng·h/mL
AUC(0-t) [4, 22]: 459 ng·h/mL
AUC(0-t) [4, 23]: 8320 ng·h/mL
AUC(0-t) [4, 24]: 301 ng·h/mL
Cmax [4, 15]: 845 ng/mL
Cmax [4, 16]: 1390 ng/mL
Cmax [4, 17]: 1760 ng/mL
Cmax [4, 18]: 1440 ng/mL
Cmax [4, 19]: 292 ng/mL
Cmax [4, 20]: 663 ng/mL
Cmax [4, 21]: 925 ng/mL
Cmax [4, 22]: 394 ng/mL
Cmax [4, 23]: 3100 ng/mL
Cmax [4, 24]: 430 ng/mL
bioavailability ([4]; female, FVB, mouse, 10 mg/kg, female CYP3A-/- mice, ibrutinib 10 mg/kg oral, cotreatment cobicistat 30 mg/kg): 32%
bioavailability ([4]; female, FVB, mouse, 10 mg/kg, female CYP3A-/- mice, ibrutinib 10 mg/kg oral, cotreatment corn oil): 27%
bioavailability ([4]; female, FVB, mouse, 10 mg/kg, female CYP3A-/- mice, ibrutinib 10 mg/kg oral, no cotreatment): 45%
bioavailability ([4]; female, FVB, mouse, 10 mg/kg, female wild-type FVB mice, ibrutinib 10 mg/kg oral single dose, cotreatment cobicistat 30 mg/kg): 50%
bioavailability ([4]; female, FVB, mouse, 10 mg/kg, female wild-type FVB mice, ibrutinib 10 mg/kg oral single dose, cotreatment corn oil): 5.5%
bioavailability ([4]; female, FVB, mouse, 10 mg/kg, female wild-type FVB mice, ibrutinib 10 mg/kg oral, cotreatment cobicistat 30 mg/kg, steady-state): 43%
bioavailability ([4]; female, FVB, mouse, 10 mg/kg, female wild-type FVB mice, ibrutinib 10 mg/kg oral, cotreatment corn oil, steady-state): 8.8%
bioavailability ([4]; female, FVB, mouse, 10 mg/kg, female wild-type FVB mice, ibrutinib 10 mg/kg oral, no cotreatment): 5.8%
AUC(0-t) [4, 25]: 1710 ng·h/mL
Cmax [4, 25]: 554 ng/mL
bioavailability ([4]; female, FVB, mouse, 30 mg/kg, female wild-type FVB mice, ibrutinib 30 mg/kg oral, no cotreatment): 11%
increase in ibrutinib AUC ([4]; cobicistat): 7 fold
increase in ibrutinib AUC ([4]; ketoconazole): 10 fold
AUC(0-t) [4, 26]: 1770 ng·h/mL
AUC(0-t) [4, 27]: 1390 ng·h/mL
Cmax [4, 26]: 1630 ng/mL
Cmax [4, 27]: 1380 ng/mL
AUC(0-t) [4, 28]: 520 ng·h/mL
AUC(0-t) [4, 29]: 429 ng·h/mL
AUC(0-t) [4, 30]: 636 ng·h/mL
AUC(0-t) [4, 31]: 4340 ng·h/mL
AUC(0-t) [4, 32]: 663 ng·h/mL
AUC(0-t) [4, 33]: 6640 ng·h/mL
Cmax [4, 28]: 360 ng/mL
Cmax [4, 29]: 404 ng/mL
Cmax [4, 30]: 348 ng/mL
Cmax [4, 31]: 1360 ng/mL
Cmax [4, 32]: 243 ng/mL
Cmax [4, 33]: 1260 ng/mL
systemic levels of ibrutinib ([4]; mice lacking OATP1B2 vs wild-type): not altered
systemic levels of ibrutinib ([4]; mice lacking OATP2B1 vs wild-type): not altered
increase in exposure to ibrutinib ([4]; wild-type mice, oral ibrutinib 10 mg/kg after cobicistat 30 mg/kg, single dose or steady-state (day 5)): about 9 fold
IIV Ka ([5]; inter-individual variability): 0.209
IIV Lag ([5]; inter-individual variability): 0.0264
IIV Vc ([5]; inter-individual variability): 0.167
IIV Vp ([5]; inter-individual variability): 0.295
Ka (absorption rate constant) [5]: 0.340 h⁻¹
Lag (lag time) [5]: 0.0324 h
RV IBU ([5]; residual variability): 0.425
SMILES: C=CC(=O)N1CCC[C@@H](n2nc(-c3ccc(Oc4ccccc4)cc3)c3c(N)ncnc32)C1 [Ibrutinib]
fu, plasma [1]: 0.027
pKa [3]: 3.78
